Series [1] can be described thus: Pharmacokinetics after single dose of GBT440 (FIG. 1), rat. In kind it is in vivo. From the text:
(§1) FIG. 1 graphically illustrates the high oral bioavailability, sustained exposure and dramatic RBC partitioning following single dose of GBT440. Certain relevant pharmacokinetic parameters are tabulated below:
(§2) FIG. 1 in parts A, B, and C graphically illustrates the high in vivo oral bioavailability, sustained exposure and the high RBC partitioning following single dose of GBT440.

Series [2] in a line: Pharmacokinetics after single dose of GBT440 (FIG. 1), dog. In kind it is in vivo.
Description: as §1, §2

Series [3] can be described thus: Pharmacokinetics after single dose of GBT440 (FIG. 1), monkey. In kind it is in vivo.
Description: as §1, §2

Series [4] addresses T1, HbS (Homo sapiens, UniProt P68871+P69905, E7V). The series can be described thus: 96-well oxygen dissociation assay (ODA). In kind it is biochemical. The following applies: [Hb] 3 μM; [cmp] 1 μM.
The next series concerns washed red blood cells. The series can be described thus: Reverse Hemox assay (OEC), washed red blood cells. In kind it is cell-based, human. The following applies: washed RBCs; 1 mM compound; control 30 mm Hg. Here is the method: (§3) Oxygen Equilibrium Curves (OEC) of whole blood before and after treatment with different concentrations of compounds 12, 22 and 23 were performed as follows using a HEMOX analyzer (TCS Scientific, New Hope, Pa.). Blood samples from homozygous sickle cell patients were obtained though the Hemoglobinopathy Center at Children's Hospital Oakland Research Institute (CHORI) with Institutional Review Board approval. The hematocrit was adjusted to 20% using autologous plasma and the blood samples were incubated for 1 hour at 37° C. in absence or presence of compounds. 100 μl of these samples were added to 5 mL of Hemox butter (30 mM TES, 130 mM NaCl, 5 mM KCl, pH=7.4) at 37° C. and then transferred to the Hemox sample chamber. The samples were saturated with oxygen by flushing with compressed air for 10 minutes. The samples were then flushed with pure nitrogen and the respective absorbances of oxy- and deoxy-Hb are recorded as a function of the solution pO2. The oxygen equilibrium data were then fitted to the Hill Model to obtain values for p50. The deoxygenation curves for both whole blood alone (control) and whole blood in the presence of the compound were collected with the TCS software.
(§4) Reverse hemox assay was performed essentially as described in Example 2, above, using either washed red blood cells or whole blood.
Results: Table 4, below, indicates the percent change in p50 (delta p50%) for each compound tested. In the washed red blood cells (RBCs), 5-HMF, compound 5, and compound 12 (1 mM compound) gave p50 of 20, 9 and 7 mm Hg, respectively, compared to the control red blood cells (delta p50=30 mm Hg). To determine the effects of plasma proteins on compound activity. OECs were measured in whole blood from sickle cell disease patients. 5-HMF, compound 5, compound 9, and compound 12 gave p50 of 27, 18, 11 and 6 mm Hg, respectively, compared to the control blood p50 of 30 mm Hg.

Series [5] concerns the target T2, whole blood from homozygous sickle cell patients, Hb(S) (Homo sapiens, UniProt P68871+P69905, E7V).
T2 construct: Oxygen Equilibrium Curves (OEC) of whole blood before and after treatment; from tissue; host or cells: whole blood (or washed red blood cells) of homozygous sickle cell patients
In words: Reverse Hemox assay (oxygen equilibrium curves), whole blood. Format: cell-based. The following applies: for Whole Blood OEC (delta p50%): [Hb] 1 mM. Here is the method:
as §3
Results: Table 3 below lists the delta p50% values where “+” indicates a delta p50% of between 0 and 29, “++” indicates a delta p50% of between 30 and 50, and “+++” indicates a delta p50% of 50 or greater.
as §4

The subject of series [6] is sickle cell disease patient whole blood (ssRBCs). The series can be described thus: Viscosity assay, hypoxic sickle cell blood. Format: cell-based, human. The following applies: [Hb] 1.5 mM; [cmp] 8 mM; two hours of hypoxia. Here is the method:
Sickle cell disease patients develop anemia as a means for the circulatory system to compensate for increase in blood viscosity caused by the non-deformable sickle cell red blood cells (ssRBCs). The effects of 5-HMF, compound 5, compound 9, or compound 12 were tested on sickle cell disease patient blood rheology to determine if these compounds decrease the viscosity of ssRBCs that have undergone hypoxia. Using blood from patients with sickle cell disease, whole blood (30% hematocrit, ˜1.5 mM Hb) was incubated with 5-HMF, compound 5, compound 9, or compound 12 during exposure to two hours of hypoxia (2.4% 02). A cone-plate viscometer was used to measure the viscosity at shear rates ranging from 60 s^−1 to 415 s^−1.

The target of series [7] is T1, HbS. In words: 96-well oxygen dissociation assay (ODA). In kind it is biochemical. An excerpt: Results: Table 4 below lists the change in oxygen affinity (Δoxy state). After two hours of passive deoxygenation, compound 12, at an equimolar concentration to Hb, increased the Hb oxygen affinity by 6-fold.

Molecules are shown by their SMILES.

Regarding `CC(C)n1nccc1-c1ncccc1COc1cccc(O)c1C=O` [GBT440], the bioavailability (in general, the share of a dose that reaches the circulation, judged against a reference dose that is usually intravenous) in series [1] (in vivo, IV 1.6 mg/kg, PO 7.2 mg/kg, read-out: Oral bioavailability (% F)) stood at 59.8%; in series [2] (in vivo, IV 1 mg/kg, PO 2.5 mg/kg, read-out: Oral bioavailability (% F)), 36.6%; in series [3] (in vivo, IV 1 mg/kg, PO 4.25 mg/kg, read-out: Oral bioavailability (% F)) it was 36.1%. Besides, the blood plasma ratio in series [1] (whole blood and plasma) stood at 69; in series [2] (whole blood and plasma), 74.4; in series [3] (whole blood and plasma) it was 70.9.
Turning to `COc1cc(C=O)c(OCc2cccnc2-c2[nH]ncc2C)cn1` [Compound 5, 2-methoxy-5-[[2-(4-methyl-1H-pyrazol-5-yl)pyridin-3-yl]methoxy]pyridine-4-carbaldehyde], the “Hb in ODA (Δoxy state)” value at HbS [4] came to 2; at HbS [7] ([Hb] 3 μM, [cmp] 3 μM), 10. For the same compound, the p50 is given as 9 mm Hg with washed red blood cells and 18 mm Hg in series [5] (whole blood from sickle cell disease patients, control blood p50 30 mm Hg). Besides, the “Whole Blood OEC (delta p50%)” value in series [5] ([cmp] 1 mM) stood at 49%; in series [5] ([cmp] 3 mM), 71%. In series [6], the “Viscosity (ΔcP)” value is given as over 2.4 cP. The “potency at increasing the oxygen affinity of HbS compared with 5-HMF” value at HbS [7] (96-well ODA) was “more potent at increasing the oxygen affinity of HbS than 5-hydroxy furfural”.

(Values after US20160038474A1, “COMPOSITIONS AND METHODS FOR THE MODULATION OF HEMOGLOBIN (S)” (GLOBAL BLOOD THERAPEUTICS, INC., priority 2013, published 2016).)
